Usually pKd stands for the Kd on a negative log10 scale, so that one unit is a factor of ten.

The values that follow come from patent US20230203098A1, “HUMAN TRANSFERRIN RECEPTOR BINDING PEPTIDE” (priority 2020, published 2023).

pKd: −log10 of the molar value. Where a SMILES comes first, the peptide text is derived from it. Bridges are numbered along the chain shown (N, C = ends). [ ]: non-standard residue; d: D form. NMePhe(3-Cl) = CN[C@@H](Cc1cccc(Cl)c1)C(=O)O; NMeW = CN[C@@H](Cc1c[nH]c2ccccc12)C(=O)O; Lys(N3) = [N-]=[N+]=NCCCC[C@H](N)C(=O)O; NMeY = CN[C@@H](Cc1ccc(O)cc1)C(=O)O

The target of the first assay is transferrin receptor (hTfR) (Homo sapiens, UniProt P02786). In words: Intermolecular interaction evaluation test between transferrin receptor (hTfR) and peptide by surface plasmon resonance (SPR). It is filed as binding.
Chain of transferrin receptor (hTfR) (P02786 whole entry): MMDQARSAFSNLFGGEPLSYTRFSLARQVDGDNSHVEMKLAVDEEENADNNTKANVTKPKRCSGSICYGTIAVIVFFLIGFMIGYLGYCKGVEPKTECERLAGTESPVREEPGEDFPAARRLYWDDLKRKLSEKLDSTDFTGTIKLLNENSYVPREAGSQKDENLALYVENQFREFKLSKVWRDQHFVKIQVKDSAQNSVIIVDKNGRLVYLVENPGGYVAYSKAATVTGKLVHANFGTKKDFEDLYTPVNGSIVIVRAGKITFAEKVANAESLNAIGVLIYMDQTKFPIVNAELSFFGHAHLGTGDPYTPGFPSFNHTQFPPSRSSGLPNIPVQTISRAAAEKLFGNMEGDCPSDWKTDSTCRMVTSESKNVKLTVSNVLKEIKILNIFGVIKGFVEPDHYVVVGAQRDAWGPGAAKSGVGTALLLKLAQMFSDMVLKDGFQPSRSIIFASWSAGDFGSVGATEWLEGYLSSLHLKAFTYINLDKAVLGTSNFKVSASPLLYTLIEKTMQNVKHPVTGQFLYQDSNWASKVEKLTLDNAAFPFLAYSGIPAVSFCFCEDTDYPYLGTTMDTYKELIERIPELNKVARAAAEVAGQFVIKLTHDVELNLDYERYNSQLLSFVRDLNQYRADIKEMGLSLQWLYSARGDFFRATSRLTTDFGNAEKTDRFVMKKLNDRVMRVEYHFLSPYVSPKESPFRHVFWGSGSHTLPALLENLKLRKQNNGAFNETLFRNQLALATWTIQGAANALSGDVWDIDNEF
Conditions: not given
The method in brief: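 hTfR captured on Ni-NTA chip then amine-coupled; peptides run single-cycle kinetics at 5–100 nM in 10 mM HEPES pH 8.0, 150 mM NaCl, 0.05% Tween 20, 0.1% BSA, 1.0% DMSO. KD from least-squares curve fitting of sensorgrams.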
In turn, `CC[C@H](C)[C@@H]1NC(=O)[C@H](Cc2ccc(OC)cc2)NC(=O)[C@H](Cc2ccc(O)cc2)NC(=O)[C@H](CC(N)=O)NC(=O)[C@H](Cc2c[nH]c3ccccc23)N(C)C(=O)[C@H](C(C)C)NC(=O)[C@H](Cc2cccc(Cl)c2)N(C)C(=O)[C@H](CCC(=O)O)NC(=O)[C@H](C)NC(=O)CSC[C@@H](C(=O)NCC(=O)NCC(=O)NCC(=O)NCC(=O)N[C@@H](CO)C(=O)N[C@@H](CO)C(=O)N[C@@H](CS)C(N)=O)NC(=O)[C@H](Cc2ccc(O)cc2)N(C)C(=O)[C@H](Cc2ccccc2)NC(=O)[C@@H](CCCNC(=N)N)NC(=O)[C@H](CCCNC(=N)N)NC(=O)[C@H]([C@@H](C)CC)NC1=O` [compound 234] showed a pKd of 7.00 to 9.00.
As to `CC[C@H](C)[C@@H]1NC(=O)[C@H](Cc2ccc(OC)cc2)NC(=O)[C@H](Cc2ccc(O)cc2)NC(=O)[C@H](CC(N)=O)NC(=O)[C@H](Cc2c[nH]c3ccccc23)N(C)C(=O)[C@H](C(C)C)NC(=O)[C@H](Cc2cccc(Cl)c2)N(C)C(=O)[C@H](CC(=O)O)NC(=O)[C@H](C)NC(=O)CSC[C@@H](C(=O)NCC(=O)NCC(=O)NCC(=O)NCC(=O)N[C@@H](CO)C(=O)N[C@@H](CO)C(=O)N[C@@H](CS)C(N)=O)NC(=O)[C@H](Cc2ccc(O)cc2)N(C)C(=O)[C@H](Cc2ccccc2)NC(=O)[C@@H](CCCNC(=N)N)NC(=O)[C@H](CCCNC(=N)N)NC(=O)[C@H]([C@@H](C)CC)NC1=O` [compound 236] ({CH2CO}-AD[NMePhe(3-Cl)]V[NMeW]NYY(Me)IIR[dR]F[NMeY]CGGGGSSC-NH2; thioether N-15), the pKd was 6.00 to 7.00.
On the same count and under the same terms, in the case of `CC[C@H](C)[C@@H]1NC(=O)[C@H](Cc2ccc(OC)cc2)NC(=O)[C@H](Cc2ccc(O)cc2)NC(=O)[C@H](CC(N)=O)NC(=O)[C@H](Cc2c[nH]c3ccccc23)N(C)C(=O)[C@H](C(C)C)NC(=O)[C@H](Cc2cccc(Cl)c2)N(C)C(=O)[C@H](CN)NC(=O)[C@H](C)NC(=O)CSC[C@@H](C(=O)NCC(=O)NCC(=O)NCC(=O)NCC(=O)N[C@@H](CO)C(=O)N[C@@H](CO)C(=O)N[C@@H](CS)C(N)=O)NC(=O)[C@H](Cc2ccc(O)cc2)N(C)C(=O)[C@H](Cc2ccccc2)NC(=O)[C@@H](CCCNC(=N)N)NC(=O)[C@H](CCCNC(=N)N)NC(=O)[C@H]([C@@H](C)CC)NC1=O` [compound 239] it was 7.00 to 9.00.

Still in this assay, the particulars now being: SPR; peptides, linker-added peptides and FITC conjugates, Patent ID 203-230; read-out: KD.
As to `CC[C@H](C)[C@@H]1NC(=O)[C@H](Cc2ccc(OC)cc2)NC(=O)[C@H](Cc2ccc(O)cc2)NC(=O)[C@H](CC(N)=O)NC(=O)[C@H](Cc2c[nH]c3ccccc23)N(C)C(=O)[C@H](C(C)C)NC(=O)[C@H](Cc2cccc(Cl)c2)N(C)C(=O)[C@H](CCC(=O)O)NC(=O)[C@H](C)NC(=O)CSC[C@@H](C(N)=O)NC(=O)[C@H](Cc2ccc(O)cc2)N(C)C(=O)[C@H](Cc2ccccc2)NC(=O)[C@@H](CCCNC(=N)N)NC(=O)[C@H](C)NC(=O)[C@H]([C@@H](C)CC)NC1=O` [compound 226] ({CH2CO}-AE[NMePhe(3-Cl)]V[NMeW]NYY(Me)IIA[dR]F[NMeY]C-NH2; thioether N-15), the pKd was 6.00 to 7.00.
On the same count and under the same terms, in the case of `CC[C@H](C)[C@@H]1NC(=O)[C@H](Cc2ccc(OC)cc2)NC(=O)[C@H](Cc2ccc(O)cc2)NC(=O)[C@H](CC(N)=O)NC(=O)[C@H](Cc2c[nH]c3ccccc23)N(C)C(=O)[C@H](C(C)C)NC(=O)[C@H](Cc2cccc(Cl)c2)N(C)C(=O)[C@H](CCC(=O)O)NC(=O)[C@H](C)NC(=O)CSC[C@@H](C(N)=O)NC(=O)[C@H](CCCNC(=N)N)NC(=O)[C@H](Cc2ccccc2)NC(=O)[C@H](CCCNC(=N)N)NC(=O)[C@H](CC(=O)O)NC(=O)[C@H]([C@@H](C)CC)NC1=O` [compound 227] ({CH2CO}-AE[NMePhe(3-Cl)]V[NMeW]NYY(Me)IIDRFRC-NH2; thioether N-15) it was 7.00 to 9.00; in that of `CC[C@H](C)[C@@H]1NC(=O)[C@H](Cc2ccc(OC)cc2)NC(=O)[C@H](Cc2ccc(O)cc2)NC(=O)[C@H](CC(N)=O)NC(=O)[C@H](Cc2c[nH]c3ccccc23)N(C)C(=O)[C@H](C(C)C)NC(=O)[C@H](Cc2cccc(Cl)c2)N(C)C(=O)[C@H](CCC(=O)O)NC(=O)[C@H](C)NC(=O)CSC[C@@H](C(N)=O)NC(=O)[C@H](Cc2ccc(O)cc2)N(C)C(=O)[C@H](Cc2ccccc2)NC(=O)[C@@H](CCCNC(=N)N)NC(=O)[C@H](CCCCN)NC(=O)[C@H]([C@@H](C)CC)NC1=O` [compound 228] ({CH2CO}-AE[NMePhe(3-Cl)]V[NMeW]NYY(Me)IIK[dR]F[NMeY]C-NH2; thioether N-15), 7.00 to 9.00; in that of `CC[C@H](C)[C@@H]1NC(=O)[C@H](Cc2ccc(OC)cc2)NC(=O)[C@H](Cc2ccc(O)cc2)NC(=O)[C@H](CC(N)=O)NC(=O)[C@H](Cc2c[nH]c3ccccc23)N(C)C(=O)[C@H](C(C)C)NC(=O)[C@H](Cc2cccc(Cl)c2)N(C)C(=O)[C@H](CCC(=O)O)NC(=O)[C@H](C)NC(=O)CSC[C@@H](C(=O)NCC(=O)NCC(=O)NCC(=O)NCC(=O)N[C@@H](CO)C(=O)N[C@@H](CO)C(=O)N[C@@H](CS)C(N)=O)NC(=O)[C@H](Cc2ccc(O)cc2)N(C)C(=O)[C@H](Cc2ccccc2)NC(=O)[C@@H](CCCNC(=N)N)NC(=O)[C@H](CCCCN)NC(=O)[C@H]([C@@H](C)CC)NC1=O` [compound 229], 7.00 to 9.00.
The same measure, in the same setting: in the case of `CC[C@H](C)[C@@H]1NC(=O)[C@H](Cc2ccc(OC)cc2)NC(=O)[C@H](Cc2ccc(O)cc2)NC(=O)[C@H](CC(N)=O)NC(=O)[C@H](Cc2c[nH]c3ccccc23)N(C)C(=O)[C@H](C(C)C)NC(=O)[C@H](Cc2cccc(Cl)c2)N(C)C(=O)[C@H](CCC(=O)O)NC(=O)[C@H](C)NC(=O)CSC[C@@H](C(=O)N[C@H](CCC(=O)O)C(=O)NCC(=O)NCC(=O)NCC(=O)N[C@@H](CO)C(=O)N[C@@H](CO)C(=O)N[C@@H](CS)C(N)=O)NC(=O)[C@H](Cc2ccc(O)cc2)N(C)C(=O)[C@H](Cc2ccccc2)NC(=O)[C@@H](CCCNC(=N)N)NC(=O)[C@H](CCCCN)NC(=O)[C@H]([C@@H](C)CC)NC1=O` [compound 230] ({CH2CO}-AE[NMePhe(3-Cl)]V[NMeW]NYY(Me)IIK[dR]F[NMeY]C[dE]GGGSSC-NH2; thioether N-15) it was 7.00 to 9.00.

Staying with this assay, now noted: binding to hTfR by SPR; Table 2 peptides; read-out: KD value (SPR) class.
For the compound `CC[C@H](C)[C@@H]1NC(=O)[C@H](Cc2ccc(OC)cc2)NC(=O)[C@H](Cc2ccc(O)cc2)NC(=O)[C@H](CC(N)=O)NC(=O)[C@H](Cc2c[nH]c3ccccc23)N(C)C(=O)[C@H](C(C)C)NC(=O)[C@H](Cc2cccc(Cl)c2)N(C)C(=O)[C@H](CCC(=O)O)NC(=O)[C@H](C)NC(=O)CSC[C@@H](C(=O)NCC(=O)NCC(=O)NCC(=O)NCC(=O)N[C@@H](CO)C(=O)N[C@@H](CO)C(=O)N[C@@H](CS)C(N)=O)NC(=O)[C@H](Cc2ccc(O)cc2)N(C)C(=O)[C@H](Cc2ccccc2)NC(=O)[C@H](CCC(=O)O)NC(=O)[C@H](CCCNC(=N)N)NC(=O)[C@H]([C@@H](C)CC)NC1=O` [compound 231], the pKd is 7.00 to 9.00.
Still for that read-out and setting: in the case of `CC[C@H](C)[C@@H]1NC(=O)[C@H](Cc2ccc(OC)cc2)NC(=O)[C@H](Cc2ccc(O)cc2)NC(=O)[C@H](CC(N)=O)NC(=O)[C@H](Cc2c[nH]c3ccccc23)N(C)C(=O)[C@H](C(C)C)NC(=O)[C@H](Cc2cccc(Cl)c2)N(C)C(=O)[C@H](CCC(=O)O)NC(=O)[C@H](C)NC(=O)CSC[C@@H](C(=O)NCC(=O)N[C@@H](CCCCN=[N+]=[N-])C(N)=O)NC(=O)[C@H](Cc2ccc(O)cc2)N(C)C(=O)[C@H](Cc2ccccc2)NC(=O)[C@H](CCC(=O)O)NC(=O)[C@H](CCCNC(=N)N)NC(=O)[C@H]([C@@H](C)CC)NC1=O` [compound 232] ({CH2CO}-AE[NMePhe(3-Cl)]V[NMeW]NYY(Me)IIREF[NMeY]CG[Lys(N3)]-NH2; thioether N-15) it was 7.00 to 9.00; in that of `CC[C@H](C)[C@@H]1NC(=O)[C@H](Cc2ccc(OC)cc2)NC(=O)[C@H](Cc2ccc(O)cc2)NC(=O)[C@H](CC(N)=O)NC(=O)[C@H](Cc2c[nH]c3ccccc23)N(C)C(=O)[C@H](C(C)C)NC(=O)[C@H](Cc2cccc(Cl)c2)N(C)C(=O)[C@H](CCC(=O)O)NC(=O)[C@H](C)NC(=O)CSC[C@@H](C(N)=O)NC(=O)[C@H](Cc2ccc(O)cc2)N(C)C(=O)[C@H](Cc2ccccc2)NC(=O)[C@H](CCCNC(=N)N)NC(=O)[C@H](CCCNC(=N)N)NC(=O)[C@H]([C@@H](C)CC)NC1=O` [compound 233], over 9.00.
Same read-out and setting: in the case of `CC[C@H](C)[C@@H]1NC(=O)[C@H](Cc2ccc(OC)cc2)NC(=O)[C@H](Cc2ccc(O)cc2)NC(=O)[C@H](CC(N)=O)NC(=O)[C@H](Cc2c[nH]c3ccccc23)N(C)C(=O)[C@H](C(C)C)NC(=O)[C@H](Cc2cccc(Cl)c2)N(C)C(=O)[C@H](CCC(=O)O)NC(=O)[C@H](C)NC(=O)CSC[C@@H](C(=O)N[C@H](CCC(=O)O)C(=O)NCC(=O)NCC(=O)NCC(=O)N[C@@H](CO)C(=O)N[C@@H](CO)C(=O)N[C@@H](CS)C(N)=O)NC(=O)[C@H](Cc2ccc(O)cc2)N(C)C(=O)[C@H](Cc2ccccc2)NC(=O)[C@@H](CCCNC(=N)N)NC(=O)[C@H](CCCNC(=N)N)NC(=O)[C@H]([C@@H](C)CC)NC1=O` [compound 235] it was 6.00 to 7.00; in that of `CC[C@H](C)[C@@H]1NC(=O)[C@H](Cc2ccc(O)cc2)NC(=O)[C@H](Cc2ccc(O)cc2)NC(=O)[C@H](CC(N)=O)NC(=O)[C@H](Cc2c[nH]c3ccccc23)NC(=O)[C@H](C(C)C)NC(=O)[C@H](Cc2ccccc2)NC(=O)[C@H](CCCNC(=N)N)NC(=O)[C@H](C)NC(=O)CSC[C@@H](C(N)=O)NC(=O)[C@H](Cc2ccc(O)cc2)N(C)C(=O)[C@H](Cc2ccc(O)cc2)NC(=O)[C@H](CCCNC(=N)N)NC(=O)[C@H](CCCNC(=N)N)NC(=O)[C@H]([C@@H](C)CC)NC1=O` [compound 237], 7.00 to 9.00.
Still for that read-out and setting: in the case of `CC[C@H](C)[C@@H]1NC(=O)[C@H](Cc2ccc(O)cc2)NC(=O)[C@H](Cc2ccc(O)cc2)NC(=O)[C@H](CC(N)=O)NC(=O)[C@H](Cc2c[nH]c3ccccc23)NC(=O)[C@H](C(C)C)NC(=O)[C@H](Cc2ccccc2)NC(=O)[C@H](CCCCN)NC(=O)[C@H](C)NC(=O)CSC[C@@H](C(N)=O)NC(=O)[C@H](Cc2ccc(O)cc2)N(C)C(=O)[C@H](Cc2ccc(O)cc2)NC(=O)[C@H](CCCNC(=N)N)NC(=O)[C@H](CCCNC(=N)N)NC(=O)[C@H]([C@@H](C)CC)NC1=O` [compound 238] it was 7.00 to 9.00.
